Test results taken from patent publication US8334316B2, “Substituted organosulfur compounds and methods of using thereof” (ACEA Biosciences, Inc., priority 2004, dated 2012).
Several values for one entry are separate records, joined by “and”; a condition that tells them apart may be missing. Equal entries are not always repeated. Marks after values point to notes of the source that are not given here.

Key:
[1] = tested on: Bcap-37 human breast cancer; assay: Bcap-37 human breast cancer xenograft in nude mice, dosing from 24 h after transplantation (Example 3); format: in vivo; conditions: for tumor inhibition rate %: vs solvent control
Excerpt: Both male and female mice were used. […] Test control. […] Preparation and Administration of Test Compounds. […] For human tumor xenograft model, all used materials, including animal food, animal cage, supporting materials and apparatus contacted by animals, were high-pressure sterilized. Nude mice were maintained in laminar flow shelves under SPF condition. After tumor transplantation, mouse weight and tumor size in each compound dosage group were dynamically monitored and plotted.

[2] = tested on: P388 lymphocytic leukemia; assay: Murine P388 lymphocytic leukemia model (intraperitoneal transplantation), life span; format: in vivo, mouse; conditions: for Average life span X ± SD: observed within 30 days
Experimental: Both male and female mice were used.
Preparation and Administration of Test Compounds.
To prepare cancer cells for the P388 murine lymphocytic leukemia model, ascites of a P388 leukemia-bearing mouse were removed under sterile condition. The ascites were diluted in normal saline (1:6 for ascites to normal saline) to prepare cell suspension. 0.2 mL of the cell suspension was then injected intraperitoneally. […] The life span of carrier mice was determined within 30 days. The life span ratio comparing to the negative control group of the carrier mice in each compound treatment group was calculated according to the formula: Life span ratio %=average life span for the compound treatment group/average life span for the negative control group×100% (4)

[3] = tested on: ao10/17 human ovarian cancer; assay: ao10/17 human ovarian cancer xenograft in nude mice (Example 4); format: in vivo; conditions: for tumor inhibition rate %: vs solvent control
Experimental: Only female mice were used in this study. […] The high, middle and low doses of ACEA100108 were 50, […] and 8 mg/kg/d, respectively.
Preparation and Administration of Test Compounds. […] The high, middle and low dose of compound ACEA100108 was 50, 20 and 8 mg/kg, respectively.
The tumor tissues were grounded in normal saline (1:6 for tumor volume to saline volume) and tumor cell suspensions were prepared in the normal saline.
For the human ovarian cancer xenograft model, all used materials, including animal food, animal cage, supporting materials and apparatus contacted by animals, were high-pressure sterilized. Nude mice were maintained in laminar flow shelves under SPF condition. After tumor transplantation, mouse weight and tumor size in each compound dosage group were dynamically monitored and plotted. The tumor size was determined by measuring the major axis (a) and minor axis (b) of the tumor, and tumor volume was calculated according to the equation (3) in Example 3.

[4] = tested on: purified bovine brain tubulin; assay: In vitro microtubule dynamics (dynamic instability) assay, video microscopy; format: biochemical
Experimental: Tubulin Purification and Microtubule Dynamics Assays. Tubulin was purified, as described in the literature (“Kinetic stabilization of microtubule dynamic instability in vitro by vinblastine”, Toso, R. J., Jordan, […]., Matsumoto, B. and Wilson, L., Biochemistry, 1993, 32, 1285-1293). Briefly, microtubule-associated protein-rich bovine brain microtubule protein was prepared by three cycles of assembly and disassembly. Tubulin was purified from other microtubule proteins by elution through a Whatman P-11 phosphocellulose column equilibrated in PEM50 (50 mM Pipes, 1 mM MgSO4, 1 mM EGTA, 0.1 mM GTP). Purified tubulin (>99% pure) was drop-frozen in liquid nitrogen and stored at -70° C. […] The dynamics of individual microtubules were recorded at 37° C. using differential interference contrast enhanced video microscopy. The ends were designated as plus or minus on the basis of the growth rate, the number of microtubules that grew at opposite ends of the seeds, and the relative lengths of the microtubules (Panda, D., Goode, […]. and Wilson, L., Kinetic stabilization of microtubule dynamics at steady state by tau and microtubule-binding domains of tau, Biochemistry, 1995, 34, 11117-11127; Walker, R. A., O'Brien, […]., Voter, W. A., Erickson, H. P. and Salmon, E. D., Dynamic instability of individual microtubules analyzed by video light microscopy: rate constants and transition frequencies, J. Cell Biol. 1988, 107, 1437-1448). Plus ends were analyzed for 10 minutes per slide during the steady-state phase of polymerization ( 45 min after initiation of polymerization). Life histories of individual microtubules were collected as described by Panda et al. 1995 (Panda, D., Goode, […]. and Wilson, L., Kinetic stabilization of microtubule dynamics at steady state by tau and microtubule-binding domains of tau, Biochemistry, 1995, 34 11117-11127) with modifications. Data points were collected at 1-3 s intervals. […] Average rates, lengths and durations are the averages of independent events. The catastrophe frequency was calculated by dividing the number of shortening events by the total time of growth and attenuation tracked, and rescue frequency was calculated by dividing the number of rescue events by the total time of shortening tracked. To control for experimental error, each condition was filmed over multiple days using at least two distinct tubulin/GTP mixtures (2-3 slides each). No gross variation in microtubule dynamics was observed between mixtures or slides of a given condition. The concentration of drug used in dynamic instability assays was chosen by initially observing microtubules stabilized with half the concentration used in microtubule assembly assays.

[5] = 10 mg/kg iv x7 qd, 7 days after transplantation
[6] = 50 mg/kg iv x7 qd, 7 days after transplantation
[7] = 50 mg/kg iv x7 qd, 24 d (end), listed as ACEA100101
[8] = 50 mg/kg iv x7 qd, 7 D after transplantation

CC(=O)O[C@H]1C(=O)[C@@]2(C)[C@H]([C@H](OC(=O)c3ccccc3)[C@]3(O)C[C@H](OC(=O)[C@H](O)[C@@H](NC(=O)c4ccccc4)c4ccccc4)C(C)=C1C3(C)C)[C@]1(OC(C)=O)CO[C@@H]1C[C@@H]2O [Taxol, paclitaxel, reference compound]
Mice with palpable tumor / total mice [1, 5]: 4/6††
Tumor volume (cm^3) [1, 5]: 0.01 cm^3
Tumor volume (cm^3) ([1]; 10 mg/kg iv x7 qd, 14 d): 0.065 ± 0.02 cm^3
Tumor volume (cm^3) ([1]; 10 mg/kg iv x7 qd, 21 d): 0.249 ± 0.07 cm^3
Tumor volume (cm^3) ([1]; 10 mg/kg iv x7 qd, 24 d (end)): 0.685 cm^3 and 0.685 ± 0.14 cm^3
TV inhibition rate % T/C ([1]; 10 mg/kg/d iv x7 qd): 39.05%
Tumor weight ([1]; 10 mg/kg/d iv x7 qd): 0.88 ± 0.17 g
Body weight of mice ([1]; 10 mg/kg/d iv x7 qd, 0 day (beginning)): 18.1 g and 18.1 ± 1.1 g
Body weight of mice ([1]; 10 mg/kg/d iv x7 qd, 7 day): 19.7 ± 1 g
tumor inhibition rate % ([1]; 10 mg/kg/d iv x7 qd): 48.84%
animal No. beginning/end (survivors) ([2]; 10 mg/kg/d iv x7 qd): 10/0
Average life span X ± SD ([2]; 10 mg/kg/d iv x7 qd): 10.5 ± 1.18
Tumor volume (cm^3) ([3]; 10 mg/kg iv x7 qd, 7 D after transplantation): 0.01 cm^3
Tumor volume (cm^3) ([3]; 10 mg/kg iv x7 qd, 14 d): 0.033 ± 0.02 cm^3
Tumor volume (cm^3) ([3]; 10 mg/kg iv x7 qd, 21 d): 0.196 ± 0.03 cm^3
Tumor volume (cm^3) ([3]; 10 mg/kg iv x7 qd, 24 d): 0.349 ± 0.08 cm^3
Tumor weight ([3]; 10 mg/kg/d iv x7 qd): 0.77 ± 0.12 g
tumor inhibition rate % ([3]; 10 mg/kg/d iv x7 qd): 45.39%

c1ccc(CSSSCc2ccccc2)cc1 [DBTS, Dibenzyl trisulfide]
Mice with palpable tumor / total mice [1, 6]: 2/6††
Tumor volume (cm^3) [1, 6]: 0.01 cm^3
Tumor volume (cm^3) ([1]; 50 mg/kg iv x7 qd, 14 d): 0.014 ± 0.01 cm^3
Tumor volume (cm^3) ([1]; 50 mg/kg iv x7 qd, 21 d): 0.079 ± 0.01 cm^3
Tumor volume (cm^3) [1, 7]: 0.196 cm^3 and 0.196 ± 0.02 cm^3
TV inhibition rate % T/C ([1]; 50 mg/kg/d iv x7 qd): 11.17%
Tumor weight ([1]; 50 mg/kg/d iv x7 qd): 0.568 ± 0.07 g
Body weight of mice ([1]; 50 mg/kg/d iv x7 qd, 0 day (beginning), listed as ACEA100101): 18.0 g and 18 ± 1 g
Body weight of mice ([1]; 50 mg/kg/d iv x7 qd, 7 day): 18.7 ± 0.8 g
Body weight of mice ([1]; 50 mg/kg/d iv x7 qd, 14 d): 20.3 ± 0.8 g
Body weight of mice ([1]; 50 mg/kg/d iv x7 qd, 21 d): 22 ± 0.6 g
Body weight of mice ([1]; 50 mg/kg/d iv x7 qd, 24 d (end), listed as ACEA100101): 22.8 g and 22.8 ± 1.6 g
tumor inhibition rate % ([1]; 50 mg/kg/d iv x7 qd): 66.98%
animal No. beginning/end (survivors) ([2]; 50 mg/kg/d iv x7 qd): 10/0
Average life span X ± SD ([2]; 50 mg/kg/d iv x7 qd): 10.6 ± 1.26
Life span ratio % ([2]; 50 mg/kg/d iv x7 qd, vs solvent control): 109.28%
% time spent in attenuation phase ([4]; DBTS .1uM): 52%
% time spent in growth phase ([4]; DBTS .1uM): 45%
% time spent in shortening phase ([4]; DBTS .1uM): 3%
Dynamicity ([4]; DBTS .1uM): 1.72 um/min
Frequency of transitions ± SD: Catastrophes ([4]; DBTS .1uM): 0.17 ± 0.04 events/min
Frequency of transitions ± SD: Rescues ([4]; DBTS .1uM): 5.3 ± 1.3 events/min
Frequency of transitions ± SD: Total ([4]; DBTS .1uM): 0.50 ± 0.07 events/min
Growth Rate ± SEM ([4]; DBTS .1uM): 1.55 ± 0.1 um/min
Mean duration of attenuation ± SEM ([4]; DBTS .1uM): 2.15 ± 0.3
Shortening Rate ± SEM ([4]; DBTS .1uM): 35.40 ± 6.0 um/min
Duration of Event ([4]; growth events, DBTS .1uM): 2.21 ± 0.3 min
Length of Excursion ([4]; growth events, DBTS .1uM): 3.34 ± 0.3 um
Effect on duration of growth events ([4]; plus ends, steady state): increase the average duration of growth events
Effect on length of growth events ([4]; plus ends, steady state): increase the average duration of growth events and consequently the average length grown in a growth event
Effect on length of shortening events ([4]; plus ends, steady state): reduced
Effect on microtubule growth rate ([4]; plus ends, steady state): did not affect the microtubule growth rate
Effect on percentage of time spent growing ([4]; plus ends, steady state): increased the percentage of time spent growing
Duration of Event ([4]; shortening events, DBTS .1uM): 0.17 ± 0.04 min
Length of Excursion ([4]; shortening events, DBTS .1uM): 6.02 ± 0.3 um
Body weight of mice ([3]; 50 mg/kg iv x7 qd, 0 d (beginning), listed as ACEA100101): 17.3 g and 17.3 ± 1 g
Mice with palpable tumor / total mice [3, 8]: 2/6
Tumor volume (cm^3) [3, 8]: 0.01 cm^3
Body weight of mice ([3]; 50 mg/kg iv x7 qd, 7 d): 17.3 ± 1.4 g
Body weight of mice ([3]; 50 mg/kg iv x7 qd, 14 d): 18.8 ± 1.2 g
Mice with palpable tumor / total mice ([3]; 50 mg/kg iv x7 qd, 14 d): 6/6
Tumor volume (cm^3) ([3]; 50 mg/kg iv x7 qd, 14 d): 0.01 cm^3
Body weight of mice ([3]; 50 mg/kg iv x7 qd, 21 d): 19.5 ± 1 g
Tumor volume (cm^3) ([3]; 50 mg/kg iv x7 qd, 21 d): 0.129 ± 0.01 cm^3
Tumor volume (cm^3) ([3]; 50 mg/kg iv x7 qd, 24 d): 0.225 ± 0.04 cm^3
Body weight of mice [3, 7]: 21.3 g and 21.3 ± 1.2 g
Tumor weight ([3]; 50 mg/kg/d iv x7 qd): 0.602 ± 0.10 g
tumor inhibition rate % ([3]; 50 mg/kg/d iv x7 qd): 57.30%

Cc1cccc(CSSSCc2cccc(C)c2)c1 [ACEA100116, di(m-methylbenzyl)trisulfide]
Effect on length of growth events ([4]; plus ends, steady state): little effect upon the length of growing events
Effect on length of shortening events ([4]; plus ends, steady state): strong effect upon the length of shortening events
Effect on microtubule growth rate ([4]; plus ends, steady state): increased the growth rate
Effect on rate of shortening ([4]; plus ends, steady state): no effect upon the rate of shortening
